Tested on: not listed separately
Experiment: (§1) AUC in mouse plasma at 20 mg/kg, po
Assay type: ADME, organism-based
Design: dose 20 mg/kg, route oral
Conditions: plasma

Row | Compound | AUC [µM·h]
1 | COC(=O)N1CCN(C2CCN(c3cc(C)c4nc(-c5c(NCCn6cc(Cl)cn6)cc[nH]c5=O)[nH]c4c3)CC2)CC1 | 52
2 | COC(=O)N1CCN(C2CCN(c3cc(C)c4nc(-c5c(NCCc6ncn(C)c6Cl)cc[nH]c5=O)[nH]c4c3)CC2)CC1 | 48
3 | COC(=O)N1CCN(C2CCN(c3cc(C)c4nc(-c5c(NC[C@@H](O)c6cccc(Cl)c6)cc[nH]c5=O)[nH]c4c3)CC2)CC1 | 11

Tested on: Mus musculus
Experiment: as §1
Assay type: ADME, organism-based
Design: dose 20 mg/kg, route oral
Conditions: in vivo

Row | Compound | AUC [µM·h]
4 | Cc1cc(N2CCOCC2)cc2[nH]c(-c3c(NC[C@@H](O)c4cccc(Cl)c4)cc[nH]c3=O)nc12 | 8.2
5 | Cc1cc(N2CCOCC2)cc2[nH]c(-c3c(NCCc4ncn(C)c4Cl)cc[nH]c3=O)nc12 | 90
6 | Cc1cc(N2CCOCC2)cc2[nH]c(-c3c(NCCn4cc(Cl)cn4)cc[nH]c3=O)nc12 | 51
